Measurements reported in patent US20240009137A1, “ORAL THERAPEUTIC DELIVERY” (ROYAL MELBOURNE INSTITUTE OF TECHNOLOGY, priority 2020, published 2024).
Where “and” joins values, the source holds several entries; their conditions need not be identical. Identical values can stand only once. Values belong to the compound of their own block, whether it stands above or below them.

Legend:
[1] = Fluorescence recovery after photobleaching (FRAP), diffusion coefficient; format: physicochemical
Procedure: FRAP was performed on a Nikon confocal microscope. […] A bleaching and background region of interest (ROI) was used to selectively photobleach an area of the cubic phase and the fluorescence recovery curve was recorded with time. The excitation/emission wavelengths used were 553/627 nm for the octadecyl rhodamine B chloride. […] […] The open source Matlab code frap_analysis_2p5 was used to determine diffusion coefficients μ from FRAP data.

[2] = measured using NMR in a previous study; cited from earlier work
in vivo = experiment: in vivo; parameters: species or system Sprague Dawley rats; conditions: male, Sprague-Dawley, rat, 1 mg/kg
Procedure: (§1) Four male Sprague Dawley rats were used as controls. Each rat was anaesthetised with isoflurane followed by preparation of the saphenous vein. The rats were given 1 mg/kg of meropenem via SC injection, immediately following this they were placed on a heat-mat until they regained consciousness, before being housed in pairs in boxes. Blood collection (150 μl) was taken via the saphenous vein at 0, 30-, 70-, 120-, 180-, 240- and 360-mins post-injection. The blood concentration of the protein in the blood was tested using the relevant ELISA kit for meropenem.
(§2) Eight male Sprague Dawley rats were used. Each rat was anaesthetised with isoflurane followed by preparation of the saphenous vein and the first blood collection (150 μl). An enteric capsule with a thick polymer coating of approximately 160 μm containing 1 mg/kg of meropenem encapsulated in MO lipid cubic phase was then introduced via oral gavage into the rat stomach. Immediately following this they were placed on a heat-mat until they regained consciousness, before being housed in pairs. Blood collection (150 μl) was taken via the saphenous vein at 0, 35-, 50-, 120-, 180-, 240- and 360-mins post-injection.
(§3) All data are analysed on a Clariostar Plate Reader to determine concentration against a standard curve for the relevant drug.
(§4) Concentrations provided in FIGS. 10-13 are the measured concentration of the drug in the blood plasma (determined using specific Elisa kits) and are in units of ng/ml. The initial drug concentration measured at the 0 time point has been set to zero in each case and other data scaled relative to this.

[3] = Vancomycin in blood plasma (ELISA) after SC injection or oral capsule; format: in vivo, Sprague Dawley rats
Procedure: as §1, with “given 15” for “given 1”, “of vancomycin” for “of meropenem”, “for each of the proteins.” for “for meropenem.”
as §2, with “containing 15” for “containing 1”, “of vancomycin” for “of meropenem”
as §3, §4

[4] = test system: blood glucose of diabetic Sprague Dawley rats; experiment: Blood glucose levels in STZ-induced diabetic rats after insulin by SC injection or oral capsule; format: in vivo; conditions: for time over which BG levels continued to decrease: 1 IU SC injection; for Percentage of SC injection (%), efficacy of oral delivery: MO cubic phase
Procedure: 14 Sprague Dawley rats were used in this trial. One week before each phase started, all rats were given isoflurane until unconscious. Each rat was then injected intravenously in the tail with 60 mg/kg of streptozotocin (STZ) in a sodium citrate buffer. All rats were then housed in pairs and blood glucose was monitored 3 times per day over 48 hours. The induction of diabetes was confirmed when the blood glucose level was >14 mmol/L in the morning.
The rats were then housed in pairs in two boxes. Blood collection was taken at 5-, 360-, and 1440-minutes post-injection, and the BG level tested at each time point.
(§5) Four Sprague Dawley rats were used in Phase 1 and four in Phase 2. Each was initially given isoflurane until unconscious. This was followed by preparation of the saphenous vein and the baseline basal BG was tested. […] Blood collection (10 μl) was taken at 15-, 30-, 60-, 120-, and 360-minutes post-injection. BG testing was performed immediately at each time point using an Accu Chek BG monitor and strips.
as §5, with “at” for “at 15-,”, “120-, 360-,” for “120-,”, “465-minutes” for “360-minutes”, “strips. One rat didn't develop diabetes and one rat had kidney problems. In each case, the AWO (Animal Welfare Officer) was consulted and both rats were removed from the trial.” for “strips.”
Four Sprague Dawley rats were used in this part of the trial. Each was initially given isoflurane until unconscious. This was followed by preparation of the saphenous vein and the first blood collection (10 μl) and BG testing. […] Blood collection (10 μl) was taken at 75-, 120-, 180-, 240-, 300- and 360- minutes, and BG testing was performed at each time point using an Accu Chek BG monitor and strips.
(§6) Two Sprague Dawley rats were used in this part of the trial. Each was initially given isoflurane until unconscious. This was followed by preparation of the saphenous vein and the first blood collection (10 μl) and BG testing. […] Immediately following this they were placed on a heat-mat until they regained consciousness, before being housed in pairs in boxes. Blood collection (10 μl) was taken at 105-, 135-, 165-, 210-, 345- and 460- minutes, and BG testing was performed at each time point using an Accu Chek BG monitor and strips.
as §6, with “Four” for “Two”, “45-, 75-, 120-, 160-, 220-, 260-, 300-” for “105-, 135-, 165-, 210-, 345-”, “360-” for “460-”
as §6, with “30-, 60-, 80-, 125-, 180-, 280-, 340-, 400-” for “105-, 135-, 165-, 210-, 345-”

[5] = Human growth hormone in blood plasma (ELISA) after SC injection or oral capsule; format: in vivo, Sprague Dawley rats
Procedure: as §1, with “human growth hormone” for “meropenem”, “human growth hormone.” for “meropenem.”
as §2, with “the human growth hormone” for “meropenem”, “120-,180-,” for “120-, 180-,”, “post-injection” for “post-injection.”
as §3, §4

[6] = oral enteric capsule, MO cubic phase, 15 mg/kg
[7] = 1 IU oral, MO cubic phase in enteric capsule T=3, Phase 1, Rats 2-4
[8] = oral enteric capsule vs SC, 1 mg/kg
[9] = oral enteric capsule, MO cubic phase, 1 mg/kg

- Diffusion Coefficient ([1]; in MO QII^D bulk cubic phase (insulin: FITC labelled, 5 mg/ml)): 0.97 ×10^−6 cm^2 s^−1
- Diffusion Coefficient ([1]; in PT QII^D bulk cubic phase (insulin: FITC labelled, 5 mg/ml)): 0.59 ×10^−6 cm^2 s^−1
Compound: CCCCCCCCCCCCCCCCCCOC(=O)c1ccccc1-c1c2ccc(=[N+](CC)CC)cc-2oc2cc(N(CC)CC)ccc12.[Cl-] [Octadecyl rhodamine B chloride, octadecyl rhodamine B chloride]

Compound: CC(C)CCCC(C)CCCC(C)CCCC(C)(O)C(O)CO (centres unmarked) [PT, phytantriol]
- lipid self-diffusion coefficient [2]: 0.3 ×10^−6 cm^2 s^−1

- bioavailability (in vivo): 58%
- maximum drug plasma concentration as % of that following SC injection (in vivo): 55%
- maximum drug concentration in blood plasma (in vivo; po): 19 to 23 ng/mL
- time by which baseline drug concentrations are reached (in vivo; po): ≤ 180 min
- time of maximum plasma concentration (in vivo; po): 50 min
- maximum drug concentration in blood plasma (in vivo; sc): 37 to 40 ng/mL
- time by which baseline values are reached (in vivo; sc): ≤ 240 min
- time of maximum plasma concentration (in vivo; sc): 30 min
Compound: C[C@@H](O)[C@H]1C(=O)N2C(C(=O)O)=C(S[C@@H]3CN[C@H](C(=O)N(C)C)C3)[C@H](C)[C@H]12 [meropenem]

Compound: CN[C@H](CC(C)C)C(=O)N[C@H]1C(=O)N[C@@H](CC(N)=O)C(=O)N[C@H]2C(=O)N[C@H]3C(=O)N[C@H](C(=O)N[C@H](C(=O)O)c4cc(O)cc(O)c4-c4cc3ccc4O)[C@H](O)c3ccc(c(Cl)c3)Oc3cc2cc(c3O[C@@H]2O[C@H](CO)[C@@H](O)[C@H](O)[C@H]2O[C@H]2C[C@](C)(N)[C@H](O)[C@H](C)O2)Oc2ccc(cc2Cl)[C@H]1O [vancomycin]
- time by which baseline values are reached ([3]; SC injection 15 mg/kg): ≤ 180 min
- time of maximum plasma concentration ([3]; SC injection 15 mg/kg): 30 min
- maximum drug concentration in blood plasma ([3]; SC injection 15 mg/kg, four rats): approximately 1500 ng/ml
- bioavailability ([3]; male, Sprague-Dawley, rat, plasma, oral enteric capsule vs SC, 15 mg/kg, read-out: overall bioavailability as % of that following SC injection): 73.9%
- maximum drug concentration in blood plasma ([3]; oral enteric capsule (approx. 160 μm coating), MO cubic phase, 15 mg/kg, range over rats): 790 to 960 ng/mL
- maximum drug plasma concentration as % of that following SC injection ([3]; oral enteric capsule vs SC, 15 mg/kg): 57%
- time by which baseline drug concentrations are reached [3, 6]: ≤ 180 min
- time of maximum plasma concentration [3, 6]: 50 min

Compound: Actrapid insulin: fast acting insulin (Actrapid, Novo Nordisk), given SC or in MO cubic phase within enteric capsule
- time over which BG levels continued to decrease ([4]; Phase 1): approximately 110 mins
- time over which BG levels continued to decrease ([4]; Phase 2): approximately 120 mins
- lead time: BG levels continued to increase after oral administration ([4]; 1 IU oral, MO cubic phase in enteric capsule T=1, Phase 2, Rats 5-8): approximately 60 mins
- overall decrease in BG ([4]; 1 IU oral, MO cubic phase in enteric capsule T=1, Phase 2, individual Rats 5, 6, 7, 8 in this order): 6.2 mmol/L and 8.7 mmol/L and 11.4 mmol/L and 4.6 mmol/L
- lead time: BG levels continued to increase after oral administration [4, 7]: 100 to 110 min
- time period over which BG levels decreased [4, 7]: 70 to 180 min
- overall decrease in BG ([4]; 1 IU oral, MO cubic phase in enteric capsule T=3, Phase 1, individual Rats 2, 3, 4 in this order): 3.6 mmol/L and 3.1 mmol/L and 3.4 mmol/L
- time BG levels remained below 14 mmol/L ([4]; 15 IU by SC injection, pre-trial period, diabetic rats): approximately 450 minutes
- response of blood glucose to oral administration ([4]; Rat 1, perforated enterically coated capsule shell with lipid cubic phase, 1 IU, Phase 1 (comparative)): not pronounced
- Percentage of SC injection (%) ([4]; SC injection, 1 IU (reference)): 100%
- Percentage of SC injection (%), efficacy of oral delivery ([4]; oral capsule T = 1 (thinner coating), 1 IU, listed as Fast Acting Insulin): 93.1%
- Percentage of SC injection (%), efficacy of oral delivery ([4]; oral capsule T = 1 (thinner coating), 1 IU, listed as fast-acting insulin): 93%
- Percentage of SC injection (%), efficacy of oral delivery ([4]; oral capsule T = 3 (thicker coating), 1 IU, listed as Fast Acting Insulin): 56.1%
- Percentage of SC injection (%), efficacy of oral delivery ([4]; oral capsule T = 3 (thicker coating), 1 IU, listed as fast-acting insulin): 56%

Compound: human growth hormone: Human Growth Hormone (MyBioSource), given SC or in MO cubic phase within enteric capsule
- time at which total amount of protein delivered (AUC) reaches a plateau ([5]; SC injection 1 mg/kg): approximately 180 min
- time by which baseline drug concentrations are reached ([5]; SC injection 1 mg/kg): ≤ 300 min
- time of maximum plasma concentration ([5]; SC injection 1 mg/kg): 60 min
- maximum drug concentration in blood plasma ([5]; SC injection 1 mg/kg, range over four rats): 20 to 32 ng/mL
- maximum drug concentration in blood plasma ([5]; oral enteric capsule (approx. 160 μm coating), MO cubic phase, 1 mg/kg, range over rats): 19 to 24 ng/mL
- maximum drug plasma concentration as % of that following SC injection [5, 8]: 81%
- overall bioavailability as % of that following SC injection [5, 8]: 87.2%
- lag period before total protein delivered starts to increase [5, 9]: 30 min
- time at which total protein delivered (AUC) reaches a plateau [5, 9]: around 240 mins
- time by which baseline drug concentrations are reached [5, 9]: ≤ 240 min
- time of maximum plasma concentration [5, 9]: 50 min
